# Test results published in ChEMBL document CHEMBL1126299, “Synthesis and structure-activity relationships of cephalosporins with C-3' catechol-containing residues” (J Med Chem, 1992).
# Tested on: Citrobacter freundii
# Test: The compound was tested for minimum inhibitory concentration in Citrobacter freundii, Citrobacter freundii, DR 382031
# Format: functional
row,Compound,MIC [ng/mL]
1,CCn1cc(C(=O)NCC2=C(C(=O)O)N3C(=O)[C@@H](NC(=O)/C(=N\OC(C)(C)C(=O)O)c4csc(N)n4)C3SC2)c(=O)c2c(C#N)c(O)c(O)cc21 (some centres not stated),30

# Tested on: Pseudomonas aeruginosa
# Test: The compound was tested for minimum inhibitory concentration in Pseudomonas aeruginosa,799/61 permeability mutant
# Format: functional
row,Compound,MIC [ng/mL]
1,CCn1cc(C(=O)NCC2=C(C(=O)O)N3C(=O)[C@@H](NC(=O)/C(=N\OC(C)(C)C(=O)O)c4csc(N)n4)C3SC2)c(=O)c2c(C#N)c(O)c(O)cc21 (some centres not stated),8

# Tested on: Pseudomonas aeruginosa
# Test: The compound was tested for minimum inhibitory concentration in Pseudomonas aeruginosa,799WT parent organism
# Format: functional
row,Compound,MIC [ng/mL]
1,CCn1cc(C(=O)NCC2=C(C(=O)O)N3C(=O)[C@@H](NC(=O)/C(=N\OC(C)(C)C(=O)O)c4csc(N)n4)C3SC2)c(=O)c2c(C#N)c(O)c(O)cc21 (some centres not stated),8

# Tested on: Providencia stuartii
# Test: The compound was tested for minimum inhibitory concentration in Pseudomonas stuartii,I+442019 inducible type 1 lactamase producer
# Format: functional, pseudomonas stuartiii
row,Compound,MIC [ng/mL]
1,CCn1cc(C(=O)NCC2=C(C(=O)O)N3C(=O)[C@@H](NC(=O)/C(=N\OC(C)(C)C(=O)O)c4csc(N)n4)C3SC2)c(=O)c2c(C#N)c(O)c(O)cc21 (some centres not stated),8

# Tested on: not listed separately
# Test: physchem
# Description: The dissociation constant of compound was tested for beta-Lactamase stability
row,Compound,pKa
1,CCn1cc(C(=O)NCC2=C(C(=O)O)N3C(=O)[C@@H](NC(=O)/C(=N\OC(C)(C)C(=O)O)c4csc(N)n4)C3SC2)c(=O)c2c(C#N)c(O)c(O)cc21 (some centres not stated),< 5.5

# Tested on: Citrobacter freundii
# Test: microbe, parasite or virus in culture
# Description: Minimum inhibitory concentration in Citrobacter freundii, I+382010 inducible type 1 lactamase producer
row,Compound,MIC [ng/mL]
1,CCn1cc(C(=O)NCC2=C(C(=O)O)N3C(=O)[C@@H](NC(=O)/C(=N\OC(C)(C)C(=O)O)c4csc(N)n4)C3SC2)c(=O)c2c(C#N)c(O)c(O)cc21 (some centres not stated),8

# Tested on: Enterobacter cloacae
# Test: microbe, parasite or virus in culture
# Description: Minimum inhibitory concentration in Enterobacter cloacae, DR 401108 constitutive depressed type 1 lactamase producer
row,Compound,MIC [ng/mL]
1,CCn1cc(C(=O)NCC2=C(C(=O)O)N3C(=O)[C@@H](NC(=O)/C(=N\OC(C)(C)C(=O)O)c4csc(N)n4)C3SC2)c(=O)c2c(C#N)c(O)c(O)cc21 (some centres not stated),500

# Tested on: Enterobacter cloacae
# Test: microbe, parasite or virus in culture
# Remark: another data set of the same source
# Description: Minimum inhibitory concentration in Enterobacter cloacae, P99+ constitutive depressed type 1 lactamase producer
row,Compound,MIC [ng/mL]
1,CCn1cc(C(=O)NCC2=C(C(=O)O)N3C(=O)[C@@H](NC(=O)/C(=N\OC(C)(C)C(=O)O)c4csc(N)n4)C3SC2)c(=O)c2c(C#N)c(O)c(O)cc21 (some centres not stated),15

# Tested on: Enterobacter cloacae
# Test: microbe, parasite or virus in culture
# Remark: another data set of the same source
# Description: Minimum inhibitory concentration in Enterobacter cloacae, I+401029 inducible type 1 lactamase producer
row,Compound,MIC [ng/mL]
1,CCn1cc(C(=O)NCC2=C(C(=O)O)N3C(=O)[C@@H](NC(=O)/C(=N\OC(C)(C)C(=O)O)c4csc(N)n4)C3SC2)c(=O)c2c(C#N)c(O)c(O)cc21 (some centres not stated),15

# Tested on: Enterobacter cloacae
# Test: microbe, parasite or virus in culture
# Remark: another data set of the same source
# Description: Minimum inhibitory concentration in Enterobacter cloacae, P99- inducible type 1 lactamase producer
row,Compound,MIC [ng/mL]
1,CCn1cc(C(=O)NCC2=C(C(=O)O)N3C(=O)[C@@H](NC(=O)/C(=N\OC(C)(C)C(=O)O)c4csc(N)n4)C3SC2)c(=O)c2c(C#N)c(O)c(O)cc21 (some centres not stated),15

# Tested on: Pseudomonas aeruginosa
# Test: microbe, parasite or virus in culture
# Description: Minimum inhibitory concentration in Pseudomonas aeruginosa, 18S inducible type 1 lactamase producer
row,Compound,MIC [ng/mL]
1,CCn1cc(C(=O)NCC2=C(C(=O)O)N3C(=O)[C@@H](NC(=O)/C(=N\OC(C)(C)C(=O)O)c4csc(N)n4)C3SC2)c(=O)c2c(C#N)c(O)c(O)cc21 (some centres not stated),8

# Tested on: Pseudomonas aeruginosa
# Test: microbe, parasite or virus in culture
# Remark: another data set of the same source
# Description: Minimum inhibitory concentration in Pseudomonas aeruginosa, 18SH constitutive depressed type 1 lactamase producer
row,Compound,MIC [ng/mL]
1,CCn1cc(C(=O)NCC2=C(C(=O)O)N3C(=O)[C@@H](NC(=O)/C(=N\OC(C)(C)C(=O)O)c4csc(N)n4)C3SC2)c(=O)c2c(C#N)c(O)c(O)cc21 (some centres not stated),8
